{"source": "patent US4282111A", "about": "(Betz Laboratories, Inc., priority 1980, dated 1981)", "key": {"[1]": {"settings": "background; cited from earlier work"}, "[2]": {"settings": "background, cited from earlier work"}, "[3]": {"settings": "Cohn and Powell, J. Amer. Chem. Soc., 76, 2568 (1954); cited from earlier work"}, "[4]": {"assay": "oxygen scavenging in feedwater of a working boiler (Example 2)", "procedure": "In order to compare the performance of hydroquinone with that of hydrazine under field-type conditions, a series of experiments were conducted on the feedwater of a working boiler. The test materials were fed to the deaerator storage tank, and the resultant change, if any, in dissolved oxygen level was measured on a sample flowing from the feedwater line through a membrane-type dissolved oxygen probe.\nDuring the tests, a relatively wide range of experimental conditions was encountered among the test parameters, reflecting the difficulty of attempting to obtain precise data during experiments performed on a working boiler.\nIn order to provide some point of reference for judging oxygen scavenging efficacies while taking into account the diverse conditions experienced on a daily basis, hydrazine control runs were performed, whenever possible, under feedwater and boiler conditions similar to those encountered during testing of other test materials. The hydrazine control runs are reported below in TABLE 3 also in terms of % oxygen removal."}, "[5]": {"settings": "for % O2 Removed, 1 Minute: hydroquinone: pH 8.6, 22.5 °C, 0.94 mol/mol O2, initial O2 7.7 ppm"}, "[6]": {"assay": "oxygen scavenging in stainless steel hot water flow system at elevated temperature and pressure (Example 1)", "settings": "for % O2 Removed: 78±3°C, 4±1 psig, 4±0.2 min contact, feedwater: hydrazine 96 ppm pH 10.3 O2 1.8 ppm (average of 9 runs), hydroquinone 100 ppm pH 8.9 O2 2.3 ppm, p-phenylenediamine 69 ppm pH 10.9 O2 2.0 ppm, o-phenylenediamine 58 ppm pH 10.2 O2 2.0 ppm, resorcinol 90 ppm pH 9.8 O2 1.8 ppm, values below 20% may be artifacts; for oxygen scavenging in the test water (in words): conclusion from TABLE 1", "procedure": "In a first series of tests, the oxygen scavenging efficacies of various materials were evaluated under conditions of elevated temperature and pressure. The test apparatus used was essentially a stainless steel hot water flow system equipped with appropriate monitoring instrumentation. Demineralized feedwater, adjusted to the appropriate pH and initial dissolved oxygen level (controlled by nitrogen sparging), was pumped from a reservoir at ambient temperature into a once-through heater. Temperature was monitored continuously by means of thermocouples at several locations along the length of the flow tubing. A solution containing the oxygen scavenger test material was loaded into a pump driven syringe and fed continuously to the heated flow stream through a port containing a stainless steel ribbon mixing baffle. The feedwater containing dissolved oxygen and the test material then traversed the flow tubing via a by-pass comprising an additional length of coiled tubing. Contact (or reaction) time of the test material and dissolved oxygen was governed by the choice of coil length. The tendency of the temperature to drop during residence in the coiled tubing was offset by the use of thermostatted heating tapes which maintained the temperature in this tubing at 78°±3°C. Upon exiting the coiled tubing, the stream flowed through a sample cooler to render the temperature of the liquid compatible with the operating range of a membrane-type dissolved oxygen probe. The cooled liquid was analyzed for dissolved oxygen via a D.O. flow cell, and pH was potentiometrically monitored in the flow tube immediately downstream of the D.O. probe. Outputs of the temperature, pH and dissolved oxygen probes during operation were monitored via strip chart recorders. The final destination of the reaction mixture was a reservoir which could be drained for analysis of reaction products, if desired.\nTemperature in the system could be maintained at 78°±3° C. under 4±1 psig. Residence time of the feedwater in the flow tube from chemical feed point to D.O. flow cell outlet was 4±0.2 minutes. Approximately 3.5 minutes of this total was spent in a 40' length of 0.402 inch i.d. coiled tubing. Entry into and residence in the sample cooler accounted for 0.5 minute of the total contact time.\nAccording to an article by J. W. Cohn and R. E. Powell, Jr., J. Amer.\nThe test solutions were prepared by initially mixing 10 grams of test material and 90 grams of demineralized water in glass bottles and allowing the mixture to remain in a shaker for several hours. If complete dissolution for a given material was observed after shaking, the pH of the solution was measured. When the pH of the solution was below 10.0, 7 N sodium hydroxide was added dropwise until this value was reached. The quantity of added sodium hydroxide was recorded and later used in corrections for the active concentration of the solution. When the pH value of a stock solution was above pH 10.0 without requiring the addition of caustic, the solution was not further modified.\nResults of these tests are reported in TABLE 1 below in terms of percent oxygen removed from the test stream. The precision of the initial and final dissolved oxygen values reported is approximately ±10%. […] The experimental uncertainties decrease with increasing values of percent dissolved oxygen removal."}, "[7]": {"assay": "thermal decomposition of aqueous solutions in autoclaves (Example 5)", "settings": "hydrazine 60 ppm, 435 psig, 450 °F, 4 hours", "method": "The aqueous solutions (approximately 50-60 ppm in demineralized water) were subjected to specified temperature and pressure conditions for 4 hours prior to chemical analysis."}, "[8]": {"settings": "low temperatures such as room temperature; background; cited from earlier work"}, "[9]": {"system": "test rats", "settings": "conclusion from TABLE 4; cited from earlier work"}, "[10]": {"settings": "hydrazine: pH 9.2, 26.5 °C, 10.5 mol/mol O2, initial O2 0.87 ppm"}}}
{"smiles": "NN", "note": "[hydrazine]", "values": [{"measurement": "toxicity (in words)", "setting": "[1]", "value": "extreme toxicity and carcinogenicity"}, {"measurement": "temperature above which it decomposes", "setting": "[2]; to nitrogen, hydrogen and ammonia", "value": "Above 400 °F"}, {"measurement": "pH of maximum oxygen scavenging efficacy in solution", "setting": "[3]", "value": "10.0-10.5"}, {"measurement": "% O2 Removed", "setting": "[4]; hydrazine control run 1: 1.6 ppm actives, pH 8.8, steam load 11 (1000 lbs./hr.), initial O2 13.0 ppb", "value": 69, "unit": "%"}, {"measurement": "% O2 Removed", "setting": "[4]; hydrazine control run 2: 1.1 ppm actives, pH 9.4, steam load 15 (1000 lbs./hr.), initial O2 4.0 ppb", "value": 50, "unit": "%"}, {"measurement": "% O2 Removed", "setting": "[4]; hydrazine control run 3: 1.2 ppm actives, pH 8.6, steam load 15 (1000 lbs./hr.), initial O2 6.0 ppb", "value": 60, "unit": "%"}, {"measurement": "% O2 Removed", "setting": "[4]; hydrazine control run 4: 1.0 ppm actives, pH 8.8, steam load 15 (1000 lbs./hr.), initial O2 5.8 ppb", "value": 55, "unit": "%"}, {"measurement": "% O2 Removed", "setting": "[4]; hydrazine control run 5: 0.8 ppm actives, pH 9.4, steam load 11 (1000 lbs./hr.), initial O2 3.5 ppb", "value": 31, "unit": "%"}, {"measurement": "% O2 Removed", "setting": "[4]; hydrazine control run 6: 1.6 ppm actives, pH 9.6, steam load 14 (1000 lbs./hr.), initial O2 4.0 ppb", "value": 30, "unit": "%"}, {"measurement": "% O2 Removed, 1 Minute", "setting": "[5]; [10]", "value": 1, "unit": "%"}, {"measurement": "% O2 Removed, 5 Minutes", "setting": "[5]; 5 minutes, hydrazine: pH 9.2, 26.5 °C, 10.5 mol/mol O2, initial O2 0.87 ppm", "value": 2, "unit": "%"}, {"measurement": "% O2 Removed", "setting": "[6]", "value": "91 ± 4", "unit": "%"}, {"measurement": "% Decomposition", "setting": "[7]", "value": 20, "unit": "%"}, {"measurement": "rate of hydrazine-oxygen reaction (in words)", "setting": "[8]", "value": "very slow at low temperatures"}]}
{"smiles": "Oc1ccc(O)cc1", "note": "[hydroquinone]", "values": [{"measurement": "% O2 Removed", "setting": "[4]; 1.9 ppm actives, pH 8.4, steam load 15 (1000 lbs./hr.), initial O2 8.0 ppb", "value": 88, "unit": "%"}, {"measurement": "% O2 Removed", "setting": "[4]; 1.9 ppm actives, pH 8.4, steam load 15 (1000 lbs./hr.), initial O2 10.0 ppb", "value": 90, "unit": "%"}, {"measurement": "efficacy in treating boiler feedwater (in words)", "setting": "[4]; conclusion from TABLES 2 and 3", "value": "compared favorably with hydrazine"}, {"measurement": "% O2 Removed, 1 Minute", "setting": "[5]; [10]", "value": 29, "unit": "%"}, {"measurement": "reactivity at low temperature with oxygen (in words)", "setting": "[5]; conclusion from TABLE 5, compared to hydrazine", "value": "superiority of hydroquinone, as compared to hydrazine"}, {"measurement": "toxicity compared to hydrazine (in words)", "setting": "[9]", "value": "significantly less toxic as compared to hydrazine"}, {"measurement": "% O2 Removed", "setting": "[6]", "value": 97, "unit": "%"}, {"measurement": "oxygen scavenging in the test water (in words)", "setting": "[6]", "value": "at least equivalent to, if not better than, hydrazine"}]}
{"smiles": "Nc1ccccc1N", "note": "[o-phenylenediamine]", "values": [{"measurement": "% O2 Removed", "setting": "[6]", "value": 10, "unit": "%"}, {"measurement": "oxygen scavenging in the test water (in words)", "setting": "[6]", "value": "did not work as oxygen scavengers"}]}
{"smiles": "Nc1ccc(N)cc1", "note": "[p-phenylenediamine]", "values": [{"measurement": "% O2 Removed", "setting": "[6]", "value": 35, "unit": "%"}, {"measurement": "oxygen scavenging in the test water (in words)", "setting": "[6]", "value": "did not work as oxygen scavengers"}]}
{"smiles": "Oc1cccc(O)c1", "note": "[resorcinol]", "values": [{"measurement": "% O2 Removed", "setting": "[6]", "value": 0, "unit": "%"}, {"measurement": "oxygen scavenging in the test water (in words)", "setting": "[6]", "value": "did not work as oxygen scavengers"}]}
{"smiles": "O=S([O-])[O-].[Na+].[Na+]", "note": "[sodium sulfite]", "values": [{"measurement": "decomposition in the boiler (in words)", "setting": "[2]; at high pressures", "value": "decomposes in the boiler to form sulfur dioxide and hydrogen sulfide"}]}
